Conditions: acidic group

SMILES	pKa
O=[N+]([O-])c1cc[n+](O)cc1	-1.7
O=C(O)CSCc1ccccc1	3.73
CCCCCCCCCCCNCc1ccc(C)cc1	9.46
O=C([O-])CNC(=O)c1ccccc1O	8.16
NC(Cc1c[nH]c(=S)[nH]1)C(=O)[O-] (centres undefined)	11.4
Cn1cnc(C(=O)O)c1C(=O)O	-0.56
O=[N+]([O-])c1cc(-c2ccccc2)ccc1O	6.73
O=Cc1cc(Cl)cc([N+](=O)[O-])c1O	4.46
C/C(=C\Cl)C(=O)O	4.03
Oc1ccc(-c2nnn[nH]2)cc1	4.28
Cn1n[n+](C)nc1N	2.5
C=CC(Cl)C(=O)O (centres undefined)	2.54
C[C@@H]1[NH2+][C@H](CCCCCCCC(=O)O)CC[C@@H]1O	4.6
Cc1c[n+]([C@@H]2C[C@@H](O)[C@H](CO)O2)c(O)nc1NCCc1ccccc1	3.83
CC1(C)C(=O)NC(=O)C1(C)C	9.7
Cc1cccc(C(C)[N+](=O)[O-])c1 (centres undefined)	7.49
CC1c2cc(O)ccc2CC1CC(=O)O (centres undefined)	5.3
O=C(O)CC1CCCCO1 (centres undefined)	4.39
O=c1[nH]c2ccccc2c(=O)o1	8.25

SMILES	pKa
CCOC(=O)c1c(C)nc(C)c(C(=O)OCC)c1-c1cccc(NS(=O)(=O)c2ccc(N)cc2)c1	9.7
CCOC(=O)C(Cc1ccccc1)C(C)=O (centres undefined)	11.8
Cc1cccc(CN(C)C)c1O	11.1
Nc1ncnc2[nH]ncc12	10.8
Cc1ccc(C)c(C(=O)C(=O)O)c1	1.45
CNc1ccc(S(=O)(=O)Nc2nc(C)cs2)cc1	6.63
CCC([NH3+])C(=O)O (centres undefined)	2.29
O=C(c1ccccc1)c1ccccc1O	9.3
CCCCCCCCCCCC(=O)O	4.89
CCC(CC)C(=O)O	4.73
O=C(O)[C@@H]1O[C@H](Oc2cccc3[nH+]cccc23)[C@@H](O)[C@H](O)[C@H]1O	3.1
Nc1c(O)cccc1O	9.3
COC(=O)C1=C(C(=O)OC)CC=C1	5
COC(=O)CCS	9.33
Cc1cccc(C(=O)O)[nH+]1	0.9
Cc1cc(=O)oc2ccc(O)cc12	9.14
CCN(CC)C(=S)NC(=O)c1ccc(C)cc1	8.77
COc1ccccc(=O)c1O	8
CN1C(=O)N/C(=C\c2ccccc2)C1=O	9.6

SMILES	pKa
N#CC(C#N)=C(C#N)C(C#N)C#N	1.9
O/C(=C/c1cccnc1)c1ccccc1	8.79
N#Cc1nn[nH]c1C#N	1.47
CCOC(=O)COc1ccc(Cc2ccc(O)c(C[NH3+])c2)c(Cl)c1Cl	8.73
Cc1nnc(S)n1N	7.97
[NH3+][C@H]1CCCC[C@@H]1C(=O)O	3.59
O=c1ccc2ccc(O)c(O)c2o1	6.9
NS(=O)(=O)C(F)(F)I	6.79
CC(=O)/C(CN1CCOCC1)=N\O	9.15
Nc1nc([O-])c2nc[nH]c2n1	12.6
[O-]\N=C1/CCCC(=N\O)/C1=N/[O-]	12.2
CC(=O)c1cccc(O)c1	9.12
CCCCS(=O)O	2.2
CSc1cccc(O)c1	9.47
N#Cc1cccc(C(=O)O)c1	3.6
CCOC(=O)c1ccccc1-n1nc(O)c(CC)c1C	12.4
NS(=O)(=O)c1ccc(/N=C/c2ccccc2O)cc1	6.63
Nc1ccc(S(=O)(=O)NCc2ccco2)cc1	10.9

Same assay, conditions: basic group

SMILES	pKa
CNCCN(C)CCNC	10.4
COc1ccc2c(c1)cc(C)n2C	0.25
CC(CC(O)(c1ccccc1)c1ccccc1)N1CCCCC1 (centres undefined)	8.62
C[C@H]1CC[C@@H]2CCCN21	11.7
NC(Cc1c[nH]c(=S)[nH]1)C(=O)[O-] (centres undefined)	8.47
CCC1CN1CC (centres undefined)	8.19
C[C@@H]1CNC[C@H](C)N1	9.86
CCCCc1ccccc1N	4.26
CC1CCCC/C1=N\CC(=O)[O-] (centres undefined)	9.64
Nc1ccc2cc3ccccc3nc2c1	8.04
CCP(=S)(CC)C(=S)NN	5.6
Cn1c(-c2ccccn2)nc2ccccc21	4.47
CCC(C)(C)NC1CCCCC1	11.2
CC1CCCN(C(C)C=C(c2cccs2)c2cccs2)C1 (centres undefined)	8.28
COc1ccc2ccccc2n1	3.17
CC(N)Cc1ccc2c(c1)OCO2 (centres undefined)	9.67
[NH3+]CCCc1cccnc1	5.19
CNCl	1.71
CC(=O)c1ccccc1	18.3
CCN1CCC[C@@H]1CNC(=O)c1c([O-])cccc1OC	9.54
C[C@H](N)Cc1ccc(O)cc1	9.3
[O-]c1cccnn1	10.5
C#CC(C)(C)N(C)C(C)(C)C	9.3
Cc1cccc(CN(C)C)c1O	8.18
Cc1ccc(C2=NCCC2)cc1	6.41

SMILES	pKa
Nc1ncnc2[nH]ncc12	4.59
[NH3+]CCCc1ccncc1	5.51
Nc1ccc(CC(=O)[O-])cc1	5.2
OCCCNc1nc(NCCCO)nc(NCCCO)n1	5.48
NCCc1ccc([N+](=O)[O-])cc1	9.42
CCCCNCCN	10.3
CC(C)N/C=N/c1ccc(-c2c[nH]cn2)cc1	8.88
O=C(CCN1CCOCC1)c1cccc([N+](=O)[O-])c1	6.5
CCOc1ccccc1N	4.51
Nc1c(O)cccc1O	5.1
C[C@@H]1N[C@H]1C	5.33
CC(C)(C)CN	10.2
CN1CCNCC1	9.6
Cc1cnc2cccc([N+](=O)[O-])c2c1NCCC[NH+](C)C	6.01
Cc1cc2c(C)ccnc2c2ncccc12	5.71
CCCCCCCCCCCCCCCCN	10.6
Cc1cc([C@@H](N)CO)c(O)c([C@@H](N)CO)c1	9
[O-]c1cccnc1	8.6
CC[NH+](CC)CCCCCCCC(C)Nc1c2ccc(Cl)cc2nc2ccc(OC)cc12 (centres undefined)	8
CC(CC(C#N)(c1ccccc1)c1ccccc1)N1CCCCC1 (centres undefined)	7.73
O/C(=C/c1cccnc1)c1ccccc1	5.84
NCCCc1cccnc1	10.1
CCC(N)CO (centres undefined)	9.53
Cc1cccc(Cl)c1/C(=N/CCC[NH+](C)C)c1ccccc1	3.26
COc1ccc(N)cc1CN	9.77

SMILES	pKa
NCCCCCCCC(=O)[O-]	11
Cc1ccc(N2CCCC(=O)C(O)CCC2)cc1 (centres undefined)	3.2
CCN(Cl)CC	1.02
CN1C(=N)Cc2ccccc21	9.6
Nc1cnc2cc3ccccc3cc2c1	4.78
CN1[C@@H]2CC[C@H]1C[C@@H](O)C2	9.86
O=[N+]([O-])c1ccc([O-])c(CN2CCOCCOCCOCCOCC2)c1	9.69
CC(=O)/C(CN1CCOCC1)=N\O	6.1
CCc1cnccc1N	9.17
NC(=O)Cc1cccnc1	4.72
C[Si](C)(C)OC1CN(Cc2ccccc2)C1	8.08
COC(=O)c1ncccn1	-0.68
Nc1nc([O-])c2nc[nH]c2n1	9.3
Cc1cc([N+](=O)[O-])ccc1N	1.97
NNC(=O)c1cc[nH+]cc1	1.67
CCN(CC)C(C)C(=O)Nc1c(C)cccc1C (centres undefined)	8.11
CCCC(=O)OC(C)CN(C)C (centres undefined)	8.27
c1ccc2c3c([nH]c2c1)CNCC3	8.4
[NH3+]c1ccc(-c2cnc(-c3ccc(Cl)cc3)o2)cc1	0.27
Nc1ccc(S(=O)(=O)NCc2ccco2)cc1	2.25
N[C@H]1CCCC[C@@H]1C(=O)Oc1ccc([N+](=O)[O-])cc1	8.57
CNC(=O)c1ccncc1	3.8
Cc1cc([O-])nc(-n2nc(C)cc2O)n1	10
